From PubChem BioAssay (NCI) come the findings set out here.

Among the test systems are A498 renal; SW-620 colon; CCRF-CEM leukemia; RPMI-8226 leukemia; UACC-257 melanoma; SNB-19 CNS; HCT-116 colon; COLO 205 colon; OVCAR-5 ovarian; NCI-H226 lung; MOLT-4 leukemia; NCI-H522 lung.
Common to all, as to assay: NCI anticancer screen, dose series, 48 h

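Five concentrations, 48 hours, 96-well plates. The concentration for full growth arrest is given as TGI.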 Bounds are passed on as bounds.

On to `O=c1c[n+](-c2ccccc2)[nH]o1`, for which the TGI in the test with A498 renal, with SW-620 colon, in the test with CCRF-CEM leukemia, in the test with RPMI-8226 leukemia, with UACC-257 melanoma and with SNB-19 CNS was over 100 µM in each case. Besides, the TGI with HCT-116 colon, in the test on COLO 205 colon and in the test with OVCAR-5 ovarian was over 100 µM each time.
With `O/N=C1/CCCCCC1NO` (centres undefined), the TGI in the test on SW-620 colon, in the test on RPMI-8226 leukemia, with UACC-257 melanoma, with SNB-19 CNS, with HCT-116 colon and with COLO 205 colon was over 100 µM throughout. Moreover, the TGI in the test on OVCAR-5 ovarian, with NCI-H226 lung and in the test on MOLT-4 leukemia was over 100 µM in each case.
For the compound `C[C@@H]1OC(=O)C[C@H]2CC(=O)N(CCC3CN(S(=O)(=O)C(F)(F)F)c4ccc(Cc5ccc6c(c5)C(CCN5C[C@H]7[C@@H](CC(=O)O[C@H]7C)CC5=O)CN6S(=O)(=O)C(F)(F)F)cc43)C[C@@H]21` (some centres undefined), the TGI in the test on A498 renal, with SW-620 colon, in the test with CCRF-CEM leukemia, with RPMI-8226 leukemia, in the test on UACC-257 melanoma and with SNB-19 CNS was over 100 µM in each case. The TGI in the test with HCT-116 colon, with COLO 205 colon, in the test on OVCAR-5 ovarian, in the test on NCI-H226 lung and with MOLT-4 leukemia was over 100 µM in each case.
Take `O=C(Nc1ccccc1)Nn1c(-c2cccs2)nc2ccc(I)cc2c1=O`: the TGI in the test on SW-620 colon was over 100 µM; with CCRF-CEM leukemia, 60.8 µM; in the test with RPMI-8226 leukemia, 51.8 µM; in the test with UACC-257 melanoma, 65.9 µM; in the test with NCI-H522 lung, 44.7 µM; in the test with SNB-19 CNS, over 100 µM. Also, the TGI in the test with HCT-116 colon is over 100 µM; with COLO 205 colon, 53.4 µM; in the test with OVCAR-5 ovarian, over 100 µM; in the test with NCI-H226 lung it was over 100 µM.
As for `Cc1nc2c(n1CCC(C)C)C(=O)c1ccccc1C2=O`, the TGI in the test with SW-620 colon was over 100 µM; in the test on CCRF-CEM leukemia, 53.9 µM; with UACC-257 melanoma, 56.7 µM; in the test on NCI-H522 lung, 55.9 µM; in the test with SNB-19 CNS, over 100 µM; in the test on HCT-116 colon, 22.6 µM. Besides, the TGI in the test with COLO 205 colon was 30.8 µM; in the test on NCI-H226 lung, over 100 µM; with MOLT-4 leukemia it was 76.2 µM.
Take `O=c1oc2cc(O)ccc2cc1-c1nc2ccccc2s1`: the TGI was 51.1 µM with A498 renal; 44 µM in the test on SW-620 colon; 26.8 µM with CCRF-CEM leukemia; over 100 µM in the test on RPMI-8226 leukemia; 58.2 µM in the test with UACC-257 melanoma; over 100 µM in the test with SNB-19 CNS. The TGI in the test with HCT-116 colon was 47 µM; in the test on COLO 205 colon, 11 µM; with OVCAR-5 ovarian, over 100 µM; in the test on MOLT-4 leukemia it was 17.4 µM.
For the compound `Cn1c(=O)c2c(ncn2CCSS(=O)(=O)O)n(C)c1=O`, the TGI with A498 renal, in the test with SW-620 colon, with RPMI-8226 leukemia, with UACC-257 melanoma, in the test on NCI-H522 lung and with SNB-19 CNS was over 100 µM each time. Moreover, the TGI in the test with HCT-116 colon, with COLO 205 colon, in the test with OVCAR-5 ovarian and in the test on NCI-H226 lung was over 100 µM in each case.
Regarding `CNC(=O)c1n[nH]n(Cc2ccccc2)c1=S`, the TGI with SW-620 colon, with CCRF-CEM leukemia, in the test with RPMI-8226 leukemia, in the test with UACC-257 melanoma, in the test with SNB-19 CNS and with HCT-116 colon was over 100 µM throughout. Besides, the TGI in the test with COLO 205 colon, in the test on OVCAR-5 ovarian, in the test with NCI-H226 lung and with MOLT-4 leukemia was over 100 µM in each case.
Consider `O=C1C=CC[C@H](/C=C/C[C@@H](O)C[C@H](O)/C=C/c2ccccc2)O1`, for which the TGI amounted to 27 µM in the test with A498 renal; 27.4 µM in the test with SW-620 colon; 19.1 µM in the test with CCRF-CEM leukemia; 26.9 µM in the test with UACC-257 melanoma; 18 µM in the test with NCI-H522 lung; 34.1 µM in the test with SNB-19 CNS. Besides, the TGI in the test with HCT-116 colon is 17.4 µM; in the test on COLO 205 colon it was 20.4 µM; in the test on OVCAR-5 ovarian, 29.5 µM; in the test on NCI-H226 lung it was 28.7 µM; in the test with MOLT-4 leukemia, 39.6 µM.
For the compound `COP(=O)(OC)C(O)/C=C/c1ccco1` (centres undefined), the TGI in the test with A498 renal, in the test with SW-620 colon, in the test on RPMI-8226 leukemia, with UACC-257 melanoma, in the test on NCI-H522 lung and with SNB-19 CNS was over 100 µM throughout. In addition, the TGI with HCT-116 colon, in the test with COLO 205 colon, in the test with OVCAR-5 ovarian, in the test with NCI-H226 lung and with MOLT-4 leukemia was over 100 µM in each case.
As for `c1cc2cc(c1)CN1CCNCCN(CCNCC1)Cc1cccc(c1)CN1CCNCCN(CCNCC1)C2`, the TGI with A498 renal, in the test on SW-620 colon, in the test with RPMI-8226 leukemia, with UACC-257 melanoma, in the test on SNB-19 CNS and with HCT-116 colon was over 100 µM each time. Moreover, the TGI in the test on COLO 205 colon, with OVCAR-5 ovarian and in the test with MOLT-4 leukemia was over 100 µM in each case.
On to `CC(C)c1ccc2c(c1)C=C1OC(=O)[C@]3(C)CCC[C@@]2(C)C13` (some centres undefined), for which the TGI in the test with SW-620 colon, in the test on CCRF-CEM leukemia, in the test on RPMI-8226 leukemia, in the test on UACC-257 melanoma, in the test with NCI-H522 lung and in the test with SNB-19 CNS was over 100 µM each time. For the same compound, the TGI in the test on HCT-116 colon, in the test on COLO 205 colon, in the test with NCI-H226 lung and in the test with MOLT-4 leukemia was over 100 µM in each case.
Turning to `CC1C2(C)OC(=N)C(C#N)(C(c3ccco3)O2)C1(C#N)C#N` (centres undefined), the TGI in the test on A498 renal was over 100 µM; with SW-620 colon it was 40.4 µM; in the test with CCRF-CEM leukemia it was 84.4 µM; with UACC-257 melanoma it was 51.9 µM; in the test on SNB-19 CNS, over 100 µM; in the test with HCT-116 colon it was 67.1 µM. The TGI is 27.7 µM in the test on COLO 205 colon, 83.6 µM in the test with OVCAR-5 ovarian, over 100 µM in the test with NCI-H226 lung and over 100 µM in the test on MOLT-4 leukemia.
